The results in this text go back to EP4410284A1, “COMPOUND AND METHOD FOR THE TREATMENT OF ZELLWEGER SPECTRUM DISORDER” (Apteeus, priority 2023, dated 2024).

For orientation: EC50 means the concentration that produces a half-maximal response.

In series [1] the test system is PEX405 cells. In kind it is cell-based. Conditions: 3 days, PI positive cells (dead cells).
Procedure: (§1) Images were acquired using the EnSight multimode plate reader (PerkinElmer) and analysis was done using Columbus analysis software (PerkinElmer). […] Then the total number of cells and the % of dead cells was calculated.
(§2) All HDAC inhibitors were tested at 1.3 and 10 µM for 3 days on GM16513 and PEX405 cells.
The subject of series [2] is GM16513 cells. The experiment in a line: Catalase import immunofluorescence, high-content screening (% importing cells). In kind it is cell-based, human. Conditions: GM16513 cells, 3 days; for EC50 / Emax: Homo sapiens, 72 h, dose response with 6 concentrations; for EC50: read-out: EC50; for Emax: read-out: Max Efficacy (% Importing cells).
Procedure: (§3) Primary fibroblasts were seeded at 500-700 cells per well in 384-well plates and grown at 37°C overnight. Cells were treated with test compounds or 0.1% DMSO for 3 days. After 3 days and a wash with PBS, cells were fixed with 4% paraformaldehyde (Electron Microscopy Sciences) in PBS for 20 minutes. After 3 washes with PBS, the cells were permeabilized and blocked with 0.3% Triton X-100, 1% BSA in PBS for 30 minutes at room temperature followed by 3 washes with 1% BSA in PBS. The cells were incubated with a rabbit Catalase polyclonal antibody (#12980 Cell signaling) overnight at 4°C. Following 3 washes with PBS containing 0.1% Tween-20, the cells were incubated for 1 h at room temperature with a conjugated goat anti-rabbit secondary antibody Alexa Fluor 647 (Ab150083-Abcam). The cells were then washed 3 times with PBS and Hoechst 33342 (H3570-ThermoFisher Scientific) + HCS Cellmask Blue (H32720 - ThermoFisher Scientific) staining was performed at 0.1 µg/ml and 0.4 µg/mL respectively for 30 minutes at room temperature. The cells were finally washed 3 times with PBS and fluorescent images were acquired using the INCell Analyzer 6000 imaging platform (GE Healthcare Life Sciences).
Images analysis was done using Columbus analysis software (PerkinElmer). DAPI channel was used to find nuclei (Hoechst 33342) and cytoplasm (HCS CellMask Blue) and border objects were removed. Cy5 channel (AlexaFluor 647) was used to find spots corresponding to peroxisomes which correctly import catalase. […] The number of importing or non-importing cells was calculated. Finally, results were expressed as % of importing cells.
(§4) The cytotoxicity was assessed in parallel using a double nucleus staining with Hoechst 33342 and Propidium Iodide (PI).
The EC50 and maximum efficacy of these inhibitors were determined.
In series [3] the test system is PEX405 cells. The description is as above. In kind it is cell-based, human. The following applies: PEX405 cells, 3 days.
Procedure: as §3
Images analysis was done using Columbus analysis software (PerkinElmer). DAPI channel was used to find nuclei (Hoechst 33342) and cytoplasm (HCS CellMask Blue) and border objects were removed. Cy5 channel (AlexaFluor 647) was used to find spots corresponding to peroxisomes which correctly import catalase. Cells were classified as importing or non-importing cells using a linear classifier method after training with images of wells containing Healthy cells and PEX1 deficient cells. The number of importing or non-importing cells was calculated. Finally, results were expressed as % of importing cells.
as §4
Series [4] deals with GM16513 cells. In kind it is cell-based. The following applies: 3 days, PI positive cells (dead cells).
Procedure: as §1, §2

The structures appear in SMILES notation. Structures can show the parent of a compound that is named as a salt. Where two headings read alike, the source gives them in different places.

As to `Nc1ccccc1NC(=O)c1ccc(Cn2cc(-c3ccc(C(=O)NCc4cccnc4)cc3)nn2)cc1` [Nampt-IN-3], the “% PI+ cells” value in series [1] (1.3 µM) stood at 1%; in series [1] (10 µM), 4%; in series [4] (1.3 µM) it was 3%; in series [4] (10 µM) it was 3%. Also, the “% Importing cells” value is 80% in series [2] (1.3 µM), 74% in series [2] (10 µM), 33% in series [3] (1.3 µM) and 31% in series [3] (10 µM).

For `O=C(NO)c1cnc(N2C[C@@H]3[C@H](C2)[C@H]3NCc2ccc3cc(F)ccc3n2)nc1` [Nanatinostat], the “% PI+ cells” value in series [1] (1.3 µM) is listed as 15%; in series [1] (10 µM), 54%; in series [4] (1.3 µM) it was 12%; in series [4] (10 µM), 37%. The “% Importing cells” value in series [2] (1.3 µM) stood at 88%; in series [2] (10 µM), 78%; in series [3] (1.3 µM), 14%; in series [3] (10 µM), 0%. The EC50 in series [2] came to 50 nM. In addition, in series [2], the Emax was found to be 93%.

In the case of `CCCCN(Cc1ccc(C(=O)NO)cc1)C(=O)Nc1ccccc1` [Nexturastat A], the “% PI+ cells” value in series [1] (1.3 µM) is on record as 1%; in series [1] (10 µM), 3%; in series [4] (1.3 µM) it was 2%; in series [4] (10 µM), 4%. Besides, the “% Importing cells” value in series [2] (1.3 µM) came out at 35%; in series [2] (10 µM) it was 83%; in series [3] (1.3 µM), 8%; in series [3] (10 µM) it was 27%.

`COc1ccc(Cn2ccc3ccc(C(=O)NO)cc32)cc1` [PCI-34051]: the “% PI+ cells” value in series [1] (1.3 µM) was 1%; in series [1] (10 µM) it was 1%; in series [4] (1.3 µM), 1%; in series [4] (10 µM), 2%. For the same compound, the “% Importing cells” value in series [2] (1.3 µM) worked out at 16%; in series [2] (10 µM), 7%; in series [3] (1.3 µM) it was 2%; in series [3] (10 µM), 1%.

Take `Cc1[nH]c2ccccc2c1CCNCc1ccc(/C=C/C(=O)NO)cc1` [Panobinostat]: the “% PI+ cells” value in series [1] (1.3 µM) was found to be 48%; in series [1] (10 µM), 49%; in series [4] (1.3 µM), 30%; in series [4] (10 µM), 32%. For the same compound, the “% Importing cells” value is on record as 86% in series [2] (1.3 µM), 44% in series [2] (10 µM), 6% in series [3] (1.3 µM) and 18% in series [3] (10 µM). Further, the EC50 in series [2] came to 3.14 nM. For the same compound, the Emax in series [2] came to 93%.

Regarding `Cc1ccc(NC(=O)CCCCCC(=O)Nc2ccccc2N)cc1` [Pimelic Diphenylamide 106], the “% PI+ cells” value in series [1] (1.3 µM) was determined as 1%; in series [1] (10 µM) it was 2%; in series [4] (1.3 µM), 1%; in series [4] (10 µM) it was 3%. Further, the “% Importing cells” value in series [2] (1.3 µM) is given as 22%; in series [2] (10 µM) it was 52%; in series [3] (1.3 µM), 4%; in series [3] (10 µM), 17%.

Regarding `CCCCc1nc2cc(/C=C/C(=O)NO)ccc2n1CCN(CC)CC` [Pracinostat], the “% PI+ cells” value in series [1] (1.3 µM) came out at 2%; in series [1] (10 µM), 41%; in series [4] (1.3 µM) it was 4%; in series [4] (10 µM), 31%. Also, the “% Importing cells” value is listed as 92% in series [2] (1.3 µM), 86% in series [2] (10 µM), 52% in series [3] (1.3 µM) and 25% in series [3] (10 µM). Moreover, the concentration for a half-maximal effect (EC50) in series [2] is 170 nM. Moreover, the Emax in series [2] came out at 93%.

Turning to `O=C(CCCCCCC(=O)Nc1cccnc1)NO` [Pyroxamide], the “% PI+ cells” value in series [1] (1.3 µM) is given as 1%; in series [1] (10 µM) it was 1%; in series [4] (1.3 µM) it was 1%; in series [4] (10 µM) it was 4%. In addition, the “% Importing cells” value in series [2] (1.3 µM) is listed as 25%; in series [2] (10 µM) it was 11%; in series [3] (1.3 µM) it was 5%; in series [3] (10 µM), 3%.

Turning to `O=C(NO)c1ccc(CNC(=O)c2[nH]c(-c3ccc(O)cc3)cc2-c2ccoc2)cc1.O=C(O)C(F)(F)F` [QTX125 (TFA)], the “% PI+ cells” value in series [1] (1.3 µM) is 13%; in series [1] (10 µM) it was 48%; in series [4] (1.3 µM) it was 11%; in series [4] (10 µM), 30%. Besides, the “% Importing cells” value in series [2] (1.3 µM) was 83%; in series [2] (10 µM) it was 61%; in series [3] (1.3 µM) it was 23%; in series [3] (10 µM) it was 0%.

As for `Cn1cc(CNCC2CCN(c3ncc(C(=O)NO)cn3)CC2)c2ccccc21` [Quisinostat], the “% PI+ cells” value in series [1] (1.3 µM) amounted to 24%; in series [1] (10 µM), 53%; in series [4] (1.3 µM), 17%; in series [4] (10 µM), 38%. Also, the “% Importing cells” value in series [2] (1.3 µM) is reported as 98%; in series [2] (10 µM), 86%; in series [3] (1.3 µM) it was 40%; in series [3] (10 µM), 26%. Besides, in series [2], the concentration for a half-maximal effect (EC50) worked out at 30 nM. Moreover, the Emax in series [2] was 95%.

In the case of `Nc1cc(F)ccc1NC(=O)/C=C/c1cnn(C/C=C/c2ccccc2)c1` [RGFP966], the “% PI+ cells” value is recorded as 1% in series [1] (1.3 µM), 1% in series [1] (10 µM), 1% in series [4] (1.3 µM) and 3% in series [4] (10 µM). The “% Importing cells” value in series [2] (1.3 µM) is 11%; in series [2] (10 µM), 12%; in series [3] (1.3 µM), 1%; in series [3] (10 µM) it was 2%.

For `COC(=O)c1ccc(OC(=O)CCCCCCC(=O)NO)cc1` [Remetinostat], the “% PI+ cells” value is given as 0% in series [1] (1.3 µM), 1% in series [1] (10 µM), 1% in series [4] (1.3 µM) and 1% in series [4] (10 µM). The “% Importing cells” value in series [2] (1.3 µM) is given as 12%; in series [2] (10 µM) it was 14%; in series [3] (1.3 µM) it was 3%; in series [3] (10 µM) it was 2%.

On to `CN(C)Cc1ccc(S(=O)(=O)n2ccc(/C=C/C(=O)NO)c2)cc1` [Resminostat (hydrochloride), Resminostat], for which the “% PI+ cells” value in series [1] (1.3 µM) amounted to 1%; in series [1] (10 µM), 4%; in series [4] (1.3 µM), 2%; in series [4] (10 µM) it was 8%. The “% Importing cells” value in series [2] (1.3 µM) worked out at 60%; in series [2] (10 µM), 83%; in series [3] (1.3 µM), 13%; in series [3] (10 µM), 19%. Moreover, in series [2], the EC50 is 1400 nM. Also, in series [2], the Emax worked out at 86%.

For the compound `CCCCNNC(=O)c1ccc(-c2cccc(F)c2F)cc1` [SR-4370], the “% PI+ cells” value in series [1] (1.3 µM) is given as 0%; in series [1] (10 µM) it was 1%; in series [4] (1.3 µM) it was 1%; in series [4] (10 µM), 2%. Also, the “% Importing cells” value in series [2] (1.3 µM) was 26%; in series [2] (10 µM) it was 30%; in series [3] (1.3 µM) it was 5%; in series [3] (10 µM) it was 7%.

With `O=C(NO)c1ccc(CN2CCCc3cc(Cl)ccc32)cc1` [SW-100], the “% PI+ cells” value in series [1] (1.3 µM) was 0%; in series [1] (10 µM), 2%; in series [4] (1.3 µM), 1%; in series [4] (10 µM), 5%. Further, the “% Importing cells” value in series [2] (1.3 µM) is 21%; in series [2] (10 µM), 6%; in series [3] (1.3 µM), 4%; in series [3] (10 µM), 0%.
